Data: patent EP1042468B1
Where “and” joins values, the source holds several entries; their conditions need not be identical. Equal entries are not always repeated. Where two headings read alike, the source gives them in different places.

Legend:
[1] = biological target: T1, human α1H containing calcium channels expressed in HEK293 cells (Homo sapiens, UniProt O95180); test: Whole-cell patch clamp of HEK293 cells transiently expressing the α1H subunit; type: cell-based
T1 construct: expressed in transfected cells; host or cells: HEK293 (transient, calcium phosphate; pCMVCD4 co-transfected as marker)
T1 sequence (O95180 whole entry): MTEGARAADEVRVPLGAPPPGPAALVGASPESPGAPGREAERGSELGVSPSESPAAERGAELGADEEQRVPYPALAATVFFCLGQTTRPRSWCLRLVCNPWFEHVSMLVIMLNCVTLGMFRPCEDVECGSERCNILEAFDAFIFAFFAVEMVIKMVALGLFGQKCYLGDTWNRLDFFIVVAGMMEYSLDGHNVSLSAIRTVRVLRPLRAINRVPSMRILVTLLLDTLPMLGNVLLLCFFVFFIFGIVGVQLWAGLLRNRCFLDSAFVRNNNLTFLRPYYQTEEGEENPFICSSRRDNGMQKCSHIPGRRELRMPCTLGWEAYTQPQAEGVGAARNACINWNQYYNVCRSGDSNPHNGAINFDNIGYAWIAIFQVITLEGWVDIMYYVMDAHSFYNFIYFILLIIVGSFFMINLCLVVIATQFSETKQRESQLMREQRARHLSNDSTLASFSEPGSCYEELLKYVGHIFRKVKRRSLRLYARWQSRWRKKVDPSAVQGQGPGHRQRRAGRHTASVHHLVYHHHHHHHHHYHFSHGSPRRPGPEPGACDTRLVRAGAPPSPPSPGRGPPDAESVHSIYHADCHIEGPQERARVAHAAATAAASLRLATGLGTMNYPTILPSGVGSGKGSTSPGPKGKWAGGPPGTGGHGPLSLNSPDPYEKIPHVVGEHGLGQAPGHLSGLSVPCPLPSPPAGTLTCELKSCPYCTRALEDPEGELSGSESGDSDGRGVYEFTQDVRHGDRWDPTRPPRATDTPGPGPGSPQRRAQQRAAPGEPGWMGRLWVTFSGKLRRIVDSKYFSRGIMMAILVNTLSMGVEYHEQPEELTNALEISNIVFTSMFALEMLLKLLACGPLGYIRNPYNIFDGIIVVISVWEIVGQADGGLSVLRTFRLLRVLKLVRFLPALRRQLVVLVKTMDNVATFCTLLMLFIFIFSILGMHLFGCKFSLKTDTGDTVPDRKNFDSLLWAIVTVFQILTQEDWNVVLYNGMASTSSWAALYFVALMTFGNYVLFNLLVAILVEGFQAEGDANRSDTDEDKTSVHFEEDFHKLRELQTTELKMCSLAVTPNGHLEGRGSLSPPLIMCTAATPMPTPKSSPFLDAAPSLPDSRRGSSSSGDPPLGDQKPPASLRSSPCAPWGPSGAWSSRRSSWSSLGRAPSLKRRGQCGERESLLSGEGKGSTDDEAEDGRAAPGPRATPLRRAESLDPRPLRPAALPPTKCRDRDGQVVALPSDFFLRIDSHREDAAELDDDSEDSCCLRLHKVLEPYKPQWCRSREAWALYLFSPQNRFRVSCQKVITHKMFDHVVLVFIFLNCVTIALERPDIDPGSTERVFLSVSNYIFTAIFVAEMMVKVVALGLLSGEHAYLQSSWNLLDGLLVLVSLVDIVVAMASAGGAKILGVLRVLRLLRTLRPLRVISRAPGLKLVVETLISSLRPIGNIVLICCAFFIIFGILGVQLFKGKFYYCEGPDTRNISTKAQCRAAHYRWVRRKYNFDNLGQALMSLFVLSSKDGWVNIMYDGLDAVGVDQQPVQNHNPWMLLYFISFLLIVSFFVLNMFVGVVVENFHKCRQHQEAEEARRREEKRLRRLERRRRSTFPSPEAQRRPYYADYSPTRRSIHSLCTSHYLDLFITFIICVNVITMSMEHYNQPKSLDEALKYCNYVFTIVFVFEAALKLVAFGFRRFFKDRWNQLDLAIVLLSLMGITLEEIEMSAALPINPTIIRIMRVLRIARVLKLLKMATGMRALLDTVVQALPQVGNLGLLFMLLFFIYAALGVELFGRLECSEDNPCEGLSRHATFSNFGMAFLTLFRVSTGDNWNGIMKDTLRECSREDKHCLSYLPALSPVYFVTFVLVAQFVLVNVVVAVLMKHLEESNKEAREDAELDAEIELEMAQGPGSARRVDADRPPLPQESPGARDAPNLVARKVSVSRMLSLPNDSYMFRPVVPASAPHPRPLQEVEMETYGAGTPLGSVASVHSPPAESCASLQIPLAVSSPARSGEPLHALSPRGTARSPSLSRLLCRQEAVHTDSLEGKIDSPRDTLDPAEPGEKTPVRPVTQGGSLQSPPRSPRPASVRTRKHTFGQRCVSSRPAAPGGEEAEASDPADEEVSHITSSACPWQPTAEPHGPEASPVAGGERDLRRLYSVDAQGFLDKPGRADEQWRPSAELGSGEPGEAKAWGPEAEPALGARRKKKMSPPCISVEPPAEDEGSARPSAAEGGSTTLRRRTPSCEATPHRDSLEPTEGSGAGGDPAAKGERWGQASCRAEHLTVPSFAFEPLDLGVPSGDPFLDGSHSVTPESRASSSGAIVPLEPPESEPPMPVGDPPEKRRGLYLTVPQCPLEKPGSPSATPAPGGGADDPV

[2] = tested on: T-type current in hippocampal neurons; conditions: 300 µM; cited from earlier work
[3] = biological target: T2, human α1H channels expressed in Xenopus oöcytes (Homo sapiens, UniProt O95180); type: cell-based; conditions: for IC50: Ba^2+ currents (15 mM Ba^2+)
T2 construct: Construction of a full-length α1H-1-encoding DNA clone; expressed in transfected cells; host or cells: Xenopus laevis oöcytes injected with in vitro transcripts
T2 sequence (O95180 whole entry): as above

[4] = tested on: T-type current in neuroblastoma cells; conditions: cited from earlier work
[5] = biological target: human neuronal calcium channel α1D and α2 subunits (Homo sapiens, UniProt Q01668); test: Two-electrode voltage clamp of oöcytes injected with α1D and α2 transcripts; conditions: holding potential of -90 mV
Sequence of human neuronal calcium channel α1D and α2 subunits (Q01668 10-2161 limits assumed): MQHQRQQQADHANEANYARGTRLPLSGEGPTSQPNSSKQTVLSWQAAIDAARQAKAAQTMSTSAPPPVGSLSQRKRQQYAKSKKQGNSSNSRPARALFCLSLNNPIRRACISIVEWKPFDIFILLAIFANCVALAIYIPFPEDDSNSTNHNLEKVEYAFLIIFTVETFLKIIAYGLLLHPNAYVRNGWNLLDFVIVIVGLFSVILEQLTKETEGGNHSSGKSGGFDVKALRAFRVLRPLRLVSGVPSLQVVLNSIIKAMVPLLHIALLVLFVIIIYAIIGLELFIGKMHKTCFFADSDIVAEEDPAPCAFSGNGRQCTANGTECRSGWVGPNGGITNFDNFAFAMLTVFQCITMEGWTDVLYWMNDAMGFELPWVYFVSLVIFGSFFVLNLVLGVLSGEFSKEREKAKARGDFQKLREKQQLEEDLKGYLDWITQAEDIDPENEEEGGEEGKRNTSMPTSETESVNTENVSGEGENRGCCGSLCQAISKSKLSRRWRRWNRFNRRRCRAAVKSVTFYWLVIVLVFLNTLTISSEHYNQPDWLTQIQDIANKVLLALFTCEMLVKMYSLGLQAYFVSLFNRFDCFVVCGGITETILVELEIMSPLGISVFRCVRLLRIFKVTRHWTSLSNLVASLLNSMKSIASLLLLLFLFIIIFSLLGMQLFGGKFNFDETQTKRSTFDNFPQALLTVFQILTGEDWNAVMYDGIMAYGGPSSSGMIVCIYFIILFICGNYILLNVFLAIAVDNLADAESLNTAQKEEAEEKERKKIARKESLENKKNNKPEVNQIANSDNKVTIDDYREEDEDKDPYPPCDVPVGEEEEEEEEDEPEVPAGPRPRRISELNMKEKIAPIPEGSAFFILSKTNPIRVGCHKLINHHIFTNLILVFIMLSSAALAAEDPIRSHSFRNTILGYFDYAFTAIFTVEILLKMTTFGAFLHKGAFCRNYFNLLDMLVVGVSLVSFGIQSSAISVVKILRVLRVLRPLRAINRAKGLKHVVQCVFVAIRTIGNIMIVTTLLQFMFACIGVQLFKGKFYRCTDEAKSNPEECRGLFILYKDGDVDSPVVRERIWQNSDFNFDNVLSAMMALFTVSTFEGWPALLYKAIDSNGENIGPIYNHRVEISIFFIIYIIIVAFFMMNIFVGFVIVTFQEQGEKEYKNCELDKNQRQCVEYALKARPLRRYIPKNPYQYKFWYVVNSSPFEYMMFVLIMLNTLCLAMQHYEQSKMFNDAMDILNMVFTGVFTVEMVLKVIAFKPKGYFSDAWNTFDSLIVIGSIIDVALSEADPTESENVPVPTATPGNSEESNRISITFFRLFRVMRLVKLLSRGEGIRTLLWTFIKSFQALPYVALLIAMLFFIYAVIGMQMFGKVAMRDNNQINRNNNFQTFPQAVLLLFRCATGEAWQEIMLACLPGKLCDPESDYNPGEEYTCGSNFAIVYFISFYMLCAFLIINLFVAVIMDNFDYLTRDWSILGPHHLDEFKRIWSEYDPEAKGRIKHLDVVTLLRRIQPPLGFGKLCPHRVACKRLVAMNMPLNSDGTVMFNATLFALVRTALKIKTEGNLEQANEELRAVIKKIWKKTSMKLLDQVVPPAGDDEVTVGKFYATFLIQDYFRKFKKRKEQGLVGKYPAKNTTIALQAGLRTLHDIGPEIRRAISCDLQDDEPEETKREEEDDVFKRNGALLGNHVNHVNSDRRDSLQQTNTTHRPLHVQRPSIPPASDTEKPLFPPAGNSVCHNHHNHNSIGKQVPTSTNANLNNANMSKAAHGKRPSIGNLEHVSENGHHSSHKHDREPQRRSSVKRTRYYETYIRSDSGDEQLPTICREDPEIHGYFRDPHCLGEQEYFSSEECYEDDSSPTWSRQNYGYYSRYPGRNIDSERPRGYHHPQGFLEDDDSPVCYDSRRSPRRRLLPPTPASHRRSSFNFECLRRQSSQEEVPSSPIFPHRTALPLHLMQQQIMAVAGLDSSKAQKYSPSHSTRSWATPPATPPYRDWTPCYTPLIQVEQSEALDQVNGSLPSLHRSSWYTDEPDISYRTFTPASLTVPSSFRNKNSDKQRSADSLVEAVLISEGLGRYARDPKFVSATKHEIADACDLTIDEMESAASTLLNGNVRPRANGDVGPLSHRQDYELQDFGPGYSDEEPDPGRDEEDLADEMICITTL

[6] = tested on: human neuronal calcium channel α2 and β1 subunits; test: Two-electrode voltage clamp of oöcytes injected with α2 and β1 transcripts; conditions: n = 11
[7] = Xenopus oöcytes, concentration-inhibition curve of Ba^2+ currents

Compound: COC(=O)C1=C(C)NC(C)=C([N+](=O)[O-])[C@H]1c1ccccc1C(F)(F)F [(-)BayK-8644]
- inhibition at 1 µM ([1]; HEK293, read-out: % Inhibition of Control Response, 1 µM, HEK293 cells, 15 mM Ba^2+, mean ± SD(n)): 0.4 ± 0.8%
- effect on α1H channels (in words) ([1]; concentration of 1 µM): little effect
- effect on α1H-containing channels (in words) ([1]; concentration of 10 µM): marked inhibition

Compound: N=C(N)NC(=O)c1nc(Cl)c(N)nc1N [Amiloride, amiloride]
- reduction of the T-type current [2]: 40%
- nH [3]: 0.62
- effect on α1H-mediated currents (in words) [1]: inhibited
- sensitivity of α1H-1-containing calcium channels lower when expressed in HEK293 cells than when expressed in Xenopus oöcytes [1]: about 10 fold
- IC50 ([1]; HEK293 cells, charge carrier 15 mM Ba^2+, sigmoidal curve fitting): 167 µM
- IC50 [4]: ~50 µM

Compound: COC(=O)C1=C(C)NC(C)=C([N+](=O)[O-])C1c1ccccc1C(F)(F)F (centres unmarked) [Bay K 8644]
- response of barium currents (in words) [5]: little or no response
- sensitivity of inward barium currents (in words) [6]: insensitive

Compound: [Cd+2] [Cd^2+]
- IC50 ([3]; Xenopus oöcytes): 8.3 µM and 10.3 µM
- IC50 [1]: 104 µM
- sensitivity of α1H-1-containing calcium channels lower when expressed in HEK293 cells than when expressed in Xenopus oöcytes [1]: about 10 fold

Compound: CCC1(C)CC(=O)NC1=O (centres unmarked) [Ethosuximide, ethosuximide]
- inhibition at 300 µM ([1]; HEK293, 300 µM, HEK293 cells, 15 mM Ba^2+, mean ± SD(n), read-out: % Inhibition of Control Response): 7.2 ± 1.8%
- effect on α1H-mediated currents (in words) ([1]; no concentration stated): no effect

Compound: COCC(=O)O[C@]1(CCN(C)CCCc2nc3ccccc3[nH]2)CCc2cc(F)ccc2[C@@H]1C(C)C [Mibefradil, (IS,2S)-2-[2-[[3-(1H-benzimidazol-2-yl)propyl]methyl-amino]ethyl]-6-fluoro-1-isopropyl-1,2,3,4-tetrahydronaphthalen-2-yl methoxyacetate]
- nH [3, 7]: 0.71
- inhibition at 1 µM ([1]; 1 µM, HEK293 cells, 15 mM Ba^2+, mean ± SD(n), read-out: % Inhibition of Control Response): 51 ± 10%
- effect on α1H-mediated currents (in words) ([1]; no concentration stated): inhibited

Compound: [Ni+2] [Ni^2+]
- reversibility of antagonism ([3]; Xenopus oöcytes): largely reversible
- IC50 ([3]; Xenopus oöcytes): 6.3 µM
- nH [3, 7]: 0.84
- IC50 [1]: 6.6 µM
- effect on α1H-mediated currents (in words) [1]: inhibited
- α1H-mediated currents more sensitive to Ni^2+ than to Cd^2+ [1]: 16 fold

Compound: COCCOC(=O)C1=C(C)NC(C)=C(C(=O)OC(C)C)C1c1cccc([N+](=O)[O-])c1 (centres unmarked) [Nimodipine, nimodipine]
- inhibition at 10 µM ([1]; HEK293, 10 µM, HEK293 cells, 15 mM Ba^2+, mean ± SD(n), read-out: % Inhibition of Control Response): 43.7 ± 4.1%
